Biological target: human Nav1.8 (Homo sapiens (Human), UniProt Q9Y5Y9)
Assay: E-VIPR optical membrane potential assay with electrical stimulation
Format: cell-based
Details: HEK cells expressing human Nav1.8
Text: Assays for Detecting and Measuring NaV Inhibition Properties of Compounds E-VIPR Optical Membrane Potential Assay Method with Electrical Stimulation
Sodium channels are voltage-dependent proteins that can be activated by inducing membrane voltage changes by applying electric fields. The electrical stimulation instrument and methods of use are described in Ion Channel Assay Methods PCT/US01/21652, herein incorporated by reference and are referred to as E-VIPR. The instrument comprises a microtiter plate handler, an optical system for exciting the coumarin dye while simultaneously recording the coumarin and oxonol emissions, a waveform generator, a current- or voltage-controlled amplifier, and a device for inserting electrodes in well. Under integrated computer control, this instrument passes user-programmed electrical stimulus protocols to cells within the wells of the microtiter plate.
24 hours before the assay on E-VIPR, HEK cells expressing human Nav1.8 were seeded in 384-well poly-lysine coated plates at 15,000-20,000 cells per well. HEK cells were grown in media (exact composition is specific to each cell type and NaV subtype) supplemented with 10% FBS (Fetal Bovine Serum, qualified; GibcoBRL #16140-071) and 1% Pen-Strep (Penicillin-Streptomycin; GibcoBRL #15140-122). Cells were grown in vented cap flasks, in 90% humidity and 5% CO2.
1) Pre-spotted compounds (in neat DMSO) into compound plates. Vehicle control (neat DMSO), the positive control (20 mM DMSO stock tetracaine, 125 μM final in assay) and test compounds were added to each well at 160× desired final concentration in neat DMSO. Final compound plate volume was 80 μL (80-fold intermediate dilution from 1 μL DMSO spot; 160-fold final dilution after transfer to cell plate). Final DMSO concentration for all wells in assay was 0.625%.
2) Prepared Hexyl Dye Solution.
3) Prepared cell plates. On the day of the assay, medium was aspirated and cells were washed three times with 100 μL of Bath1 Solution, maintaining 25 μL residual volume in each well.
4) Dispensed 25 μL per well of Hexyl Dye Solution into cell plates. Incubated for 20-35 minutes at room temp or ambient conditions.
5) Dispensed 80 μL per well of Bath1 into compound plates. Acid Yellow-17 (1 mM) was added and Potassium Chloride was altered from 4.5 to 20 mM depending on the NaV subtype and assay sensitivity.
6) Washed cell plates three times with 100 μL per well of Bath1, leaving 25 μL of residual volume. Then transferred 25 uL per well from Compound Plates to Cell Plates. Incubated for 20-35 minutes at room temp/ambient condition.
7) Read Plate on E-VIPR. Used the current-controlled amplifier to deliver stimulation wave pulses for 10 seconds and a scan rate of 200 Hz. A pre-stimulus recording was performed for 0.5 seconds to obtain the un-stimulated intensities baseline. The stimulatory waveform was followed by 0.5 seconds of post-stimulation recording to examine the relaxation to the resting state.
Data was analyzed and reported as normalized ratios of emission intensities measured in the 460 nm and 580 nm channels. The response as a function of time was reported as the ratios obtained using the following formula: […]
The data was further reduced by calculating the initial (Ri) and final (Rf) ratios. These were the average ratio values during part or all of the pre-stimulation period, and during sample points during the stimulation period. The response to the stimulus R=Rf/Ri was then calculated and reported as a function of time.
Control responses were obtained by performing assays in the presence of a compound with the desired properties (positive control), such as tetracaine, and in the absence of pharmacological agents (negative control). Responses to the negative (N) and positive (P) controls were calculated as above. The compound antagonist activity A is defined as:
[formula] where R is the ratio response of the test compound

human Nav1.8, sequence (Q9Y5Y9 whole entry): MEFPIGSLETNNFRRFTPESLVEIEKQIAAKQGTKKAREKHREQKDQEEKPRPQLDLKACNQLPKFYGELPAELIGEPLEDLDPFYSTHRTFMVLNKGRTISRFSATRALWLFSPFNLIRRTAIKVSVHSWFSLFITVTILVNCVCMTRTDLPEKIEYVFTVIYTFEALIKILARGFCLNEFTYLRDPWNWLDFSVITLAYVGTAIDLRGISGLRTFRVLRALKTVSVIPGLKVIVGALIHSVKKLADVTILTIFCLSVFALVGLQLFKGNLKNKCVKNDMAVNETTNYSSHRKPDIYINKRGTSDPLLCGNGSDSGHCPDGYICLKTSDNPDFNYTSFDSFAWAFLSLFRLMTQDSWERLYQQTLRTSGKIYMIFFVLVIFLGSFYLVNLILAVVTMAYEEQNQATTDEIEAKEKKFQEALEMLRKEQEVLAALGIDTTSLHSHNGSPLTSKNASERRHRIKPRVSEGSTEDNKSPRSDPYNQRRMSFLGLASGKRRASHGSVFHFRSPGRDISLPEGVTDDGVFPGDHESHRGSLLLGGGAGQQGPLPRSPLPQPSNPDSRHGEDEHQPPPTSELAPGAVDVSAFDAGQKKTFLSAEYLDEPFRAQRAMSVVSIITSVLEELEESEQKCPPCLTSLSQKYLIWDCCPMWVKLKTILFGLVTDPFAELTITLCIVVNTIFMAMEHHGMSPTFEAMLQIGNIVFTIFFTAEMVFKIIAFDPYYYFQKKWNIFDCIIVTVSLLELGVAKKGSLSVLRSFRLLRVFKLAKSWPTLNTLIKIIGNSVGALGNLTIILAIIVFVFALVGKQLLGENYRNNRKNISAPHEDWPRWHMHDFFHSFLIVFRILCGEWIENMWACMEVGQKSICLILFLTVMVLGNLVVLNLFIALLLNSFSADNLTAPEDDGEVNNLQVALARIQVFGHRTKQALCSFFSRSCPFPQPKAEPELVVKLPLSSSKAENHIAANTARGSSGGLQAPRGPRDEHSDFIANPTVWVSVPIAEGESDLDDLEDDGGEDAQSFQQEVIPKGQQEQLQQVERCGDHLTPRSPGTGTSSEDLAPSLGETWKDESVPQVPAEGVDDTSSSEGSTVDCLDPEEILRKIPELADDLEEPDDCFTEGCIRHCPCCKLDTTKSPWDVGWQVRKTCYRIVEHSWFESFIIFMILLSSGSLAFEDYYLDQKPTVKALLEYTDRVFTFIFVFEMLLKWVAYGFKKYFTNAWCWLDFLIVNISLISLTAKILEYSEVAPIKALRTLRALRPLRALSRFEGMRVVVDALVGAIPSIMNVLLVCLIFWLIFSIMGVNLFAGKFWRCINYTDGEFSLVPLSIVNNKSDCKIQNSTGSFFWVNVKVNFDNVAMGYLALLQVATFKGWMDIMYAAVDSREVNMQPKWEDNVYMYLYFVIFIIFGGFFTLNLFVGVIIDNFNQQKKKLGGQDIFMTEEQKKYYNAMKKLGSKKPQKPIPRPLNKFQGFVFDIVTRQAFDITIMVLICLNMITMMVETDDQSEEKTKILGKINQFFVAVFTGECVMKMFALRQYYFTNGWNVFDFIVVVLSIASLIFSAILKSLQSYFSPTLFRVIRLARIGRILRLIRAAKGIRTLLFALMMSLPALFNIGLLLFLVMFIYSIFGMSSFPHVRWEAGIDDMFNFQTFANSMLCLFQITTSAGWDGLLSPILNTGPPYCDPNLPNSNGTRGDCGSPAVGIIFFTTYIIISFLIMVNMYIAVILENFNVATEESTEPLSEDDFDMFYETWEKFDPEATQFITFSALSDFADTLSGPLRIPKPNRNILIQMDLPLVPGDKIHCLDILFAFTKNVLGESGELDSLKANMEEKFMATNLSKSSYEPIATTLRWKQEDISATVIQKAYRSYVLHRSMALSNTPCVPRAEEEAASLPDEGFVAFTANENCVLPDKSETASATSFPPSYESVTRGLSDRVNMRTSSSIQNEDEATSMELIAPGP

| Structure (SMILES) | IC50 [nM] |
| --- | --- |
| COc1cc(F)ccc1Oc1nc2ccccc2nc1C(=O)Nc1ccnc(C(=O)O)c1 [Compound 34, 4-(3-(4-fluoro-2-methoxyphenoxy)quinoxaline-2-carboxamido)picolinic acid] | 16 |
| O=C(Nc1cc[nH]c(=O)c1)c1nc2ccccc2nc1Oc1ccc(F)cc1 [Compound 35, 3-(4-fluorophenoxy)-N-(2-oxo-1,2-dihydropyridin-4-yl)quinoxaline-2-carboxamide] | 74 |
| COc1cc(F)ccc1Oc1nc2ccccc2nc1C(=O)Nc1cccc(C(=O)O)c1 [Compound 36, 3-(3-(4-fluoro-2-methoxyphenoxy)quinoxaline-2-carboxamido)benzoic acid] | 460 |
| COc1cc(F)ccc1Oc1nc2ccccc2nc1C(=O)Nc1nc(C(=O)O)cs1 [Compound 37, 2-(3-(4-Fluoro-2-methoxyphenoxy)quinoxaline-2-carboxamido)thiazole-4-carboxylic acid] | 450 |
| COc1cc(F)ccc1Oc1nc2ccccc2nc1C(=O)Nc1nc[nH]n1 [Compound 38, 3-(4-fluoro-2-methoxyphenoxy)-N-(1H-1,2,4-triazol-3-yl)quinoxaline-2-carboxamide] | 1220 |
| COc1cc(F)ccc1Oc1nc2ccccc2nc1C(=O)Nc1nc(C(=O)O)co1 [Compound 39, 2-(3-(4-fluoro-2-methoxyphenoxy)quinoxaline-2-carboxamido)oxazole-4-carboxylic acid] | 2600 |
| COc1cc(F)ccc1Oc1nc2ccccc2nc1C(=O)Nc1cc[nH]n1 [Compound 40, 3-(4-fluoro-2-methoxyphenoxy)-N-(1H-pyrazol-3-yl)quinoxaline-2-carboxamide] | 1700 |
| COc1cc(F)ccc1Oc1nc2ccccc2nc1C(=O)Nc1ccc2[nH]nnc2c1 [Compound 42, N-(1H-benzo[d][1,2,3]triazol-5-yl)-3-(4-fluoro-2-methoxyphenoxy)quinoxaline-2-carboxamide] | 96 |
| COc1cc(F)ccc1Oc1nc2ccccc2nc1C(=O)Nc1cn[nH]c1 [Compound 43, 3-(4-fluoro-2-methoxyphenoxy)-N-(1H-pyrazol-4-yl)quinoxaline-2-carboxamide] | 220 |
| COc1cc(F)ccc1Oc1nc2ccccc2nc1C(=O)Nc1ccc2[nH]c(CO)nc2c1 [Compound 44, 3-(4-fluoro-2-methoxyphenoxy)-N-(2-(hydroxymethyl)-1H-benzo[d]imidazol-5-yl)quinoxaline-2-carboxamide] | 425 |
| COc1cc(F)ccc1Oc1nc2ccccc2nc1C(=O)Nc1cccc(-c2nnn[nH]2)c1 [Compound 45, N-(3-(1H-tetrazol-5-yl)phenyl)-3-(4-fluoro-2-methoxyphenoxy)quinoxaline-2-carboxamide] | 1650 |
| COc1cc(F)ccc1Oc1nc2ccccc2nc1C(=O)Nc1cccc(S(C)(=O)=O)c1 [Compound 46, 3-(4-fluoro-2-methoxyphenoxy)-N-(3-(methylsulfonyl)phenyl)quinoxaline-2-carboxamide] | 1 |
| COc1cc(F)ccc1Oc1nc2ccccc2nc1C(=O)Nc1ccc2cn[nH]c2c1 [Compound 47, 3-(4-fluoro-2-methoxyphenoxy)-N-(1H-indazol-6-yl)quinoxaline-2-carboxamide] | 130 |
| COc1cc(F)ccc1Oc1nc2ccccc2nc1C(=O)Nc1ccc2[nH]ncc2c1 [Compound 48, 3-(4-fluoro-2-methoxyphenoxy)-N-(1H-indazol-5-yl)quinoxaline-2-carboxamide] | 86 |
| COc1cc(F)ccc1Oc1nc2ccccc2nc1C(=O)Nc1ccc2nc[nH]c2c1 [Compound 49, N-(1H-benzo[d]imidazol-6-yl)-3-(4-fluoro-2-methoxyphenoxy)quinoxaline-2-carboxamide] | 585 |
| COc1cc(F)ccc1Oc1nc2ccccc2nc1C(=O)Nc1cc(C#N)ccn1 [Compound 50, N-(4-cyanopyridin-2-yl)-3-(4-fluoro-2-methoxyphenoxy)quinoxaline-2-carboxamide] | 1250 |
| COc1cc(F)ccc1Oc1nc2ccccc2nc1C(=O)Nc1ccc(C#N)nc1 [Compound 51, N-(6-cyanopyridin-3-yl)-3-(4-fluoro-2-methoxyphenoxy)quinoxaline-2-carboxamide] | 37 |

| Structure (SMILES) | IC50 [nM] |
| --- | --- |
| COc1cc(F)ccc1Oc1nc2ccccc2nc1C(=O)Nc1ccc(C#N)cn1 [Compound 52, N-(5-cyanopyridin-2-yl)-3-(4-fluoro-2-methoxyphenoxy)quinoxaline-2-carboxamide] | 2400 |
| COc1cc(F)ccc1Oc1nc2ccccc2nc1C(=O)Nc1ccncc1 [Compound 53, 3-(4-fluoro-2-methoxyphenoxy)-N-(pyridin-4-yl)quinoxaline-2-carboxamide] | 22 |
| COc1cc(F)ccc1Oc1nc2ccccc2nc1C(=O)Nc1cccnc1 [Compound 54, 3-(4-fluoro-2-methoxyphenoxy)-N-(pyridin-3-yl)quinoxaline-2-carboxamide] | 80 |
| COc1cc(F)ccc1Oc1nc2ccccc2nc1C(=O)Nc1ccc(C#N)cc1 [Compound 55, N-(4-cyanophenyl)-3-(4-fluoro-2-methoxyphenoxy)quinoxaline-2-carboxamide] | 46 |
| COc1cc(F)ccc1Oc1nc2ccccc2nc1C(=O)Nc1cccc(C#N)c1 [Compound 56, N-(3-cyanophenyl)-3-(4-fluoro-2-methoxyphenoxy)quinoxaline-2-carboxamide] | 30 |
| COc1cc(F)ccc1Oc1nc2ccccc2nc1C(=O)Nc1ccc2[nH]c(=O)[nH]c2c1 [Compound 57, 3-(4-fluoro-2-methoxyphenoxy)-N-(2-oxo-2,3-dihydro-1H-benzo[d]imidazol-5-yl)quinoxaline-2-carboxamide] | 19 |
| COc1cc(F)ccc1Oc1nc2ccccc2nc1C(=O)Nc1ccc(C(N)=O)cc1 [Compound 58, N-(4-carbamoylphenyl)-3-(4-fluoro-2-methoxyphenoxy)quinoxaline-2-carboxamide] | 31 |
| COc1cc(F)ccc1Oc1nc2ccccc2nc1C(=O)Nc1cccc(C(N)=O)c1 [Compound 59, N-(3-carbamoylphenyl)-3-(4-fluoro-2-methoxyphenoxy)quinoxaline-2-carboxamide] | 180 |
| NS(=O)(=O)c1cccc(NC(=O)c2cc3ccccc3nc2Oc2ccc(F)cc2)c1 [Compound 60, 2-(4-fluorophenoxy)-N-(3-sulfamoylphenyl)quinoline-3-carboxamide] | 17 |
| COc1cc(F)ccc1Oc1nc2ccccc2cc1C(=O)Nc1cccc(S(N)(=O)=O)c1 [Compound 61, 2-(4-fluoro-2-methoxyphenoxy)-N-(3-sulfamoylphenyl)quinoline-3-carboxamide] | 11 |
| COc1ccc(Oc2nc3ccccc3cc2C(=O)Nc2cccc(S(N)(=O)=O)c2)cc1F [Compound 62, 2-(3-fluoro-4-methoxyphenoxy)-N-(3-sulfamoylphenyl)quinoline-3-carboxamide] | 30 |
| Cc1cc(F)ccc1Oc1nc2ccccc2cc1C(=O)Nc1cccc(S(N)(=O)=O)c1 [Compound 63, 2-(4-fluoro-2-methylphenoxy)-N-(3-sulfamoylphenyl)quinoline-3-carboxamide] | 8 |
| NS(=O)(=O)c1cccc(NC(=O)c2cc3ccccc3nc2Oc2ccccc2)c1 [Compound 64, 2-phenoxy-N-(3-sulfamoylphenyl)quinoline-3-carboxamide] | 81 |
| NS(=O)(=O)c1cccc(NC(=O)c2cc3ccccc3nc2Oc2ccc(F)cc2F)c1 [Compound 65, 2-(2,4-difluorophenoxy)-N-(3-sulfamoylphenyl)quinoline-3-carboxamide] | 11 |
| NS(=O)(=O)c1cccc(NC(=O)c2cc3ccccc3nc2Oc2ccc(F)cc2Cl)c1 [Compound 66, 2-(2-chloro-4-fluorophenoxy)-N-(3-sulfamoylphenyl)quinoline-3-carboxamide] | 2 |
| NS(=O)(=O)c1cccc(NC(=O)c2cc3ccccc3nc2Oc2ccc(OCC(F)(F)F)cc2)c1 [Compound 67, N-(3-sulfamoylphenyl)-2-(4-(2,2,2-trifluoroethoxy)phenoxy)quinoline-3-carboxamide] | 61 |

— patent US9139529B2, “Substituted quinoxalines as sodium channel modulators” (VERTEX PHARMACEUTICALS INCORPORATED, priority 2013, dated 2015)
